Test results as given in patent US9855230B2 (ViiV Healthcare UK (No. 5) Limited, priority 2014, dated 2018).
Like-named read-outs stand apart in the source and are kept apart here.

What was measured:
[1] = system: recombinant NL4-3 virus (nef section replaced with Renilla luciferase gene) in MT-2 cells; experiment: whole plant or invertebrate; format: cell-based, HIV; settings: NL43, luciferase activity in MT-2 cells infected 4-5 days with recombinant NL4-3 virus
Source text: A recombinant NL4-3 proviral clone, in which a section of the nef gene was replaced with the Renilla luciferase gene, was used to make the reference virus used in these studies.
Supernatent was harvested after 2-3 days and the amount of virus present was titered in MT-2 cells using luciferase enzyme activity as a marker by measuring luciferase enzyme activity. Luciferase was quantitated using the EnduRen Live Cell Substrate from Promega (Madison, Wis.). Antiviral activities of compounds toward the recombinant virus were quantified by measuring luciferase activity in MT-2 cells infected for 4-5 days with the recombinant virus in the presence of serial dilutions of the compound.

[2] = Compound cytotoxicity (CC50), XTT-based colorimetric assay; format: cell-based; settings: human; uninfected MT2 cells, day 4, XTT assay
Method: Compound cytotoxicity and the corresponding CC50 values were determined using the same protocol as described in the antiviral assay except that uninfected cells were used. Cytotoxicity was assessed on day 4 in uninfected MT2 cells by using a XTT (2,3-bis[2-Methoxy-4-nitro-5-sulfophenyl]-2H-tetrazolium-5-carboxyanilide inner salt)-based colorimetric assay (Sigma-Aldrich, St Louis, Mo.).

| SMILES | EC50 ([1]; read-out: Activity) | EC50 ([1]; read-out: EC50) | CC50 at 4 day [2] |
| --- | --- | --- | --- |
| CCOc1cccc(-n2ccnc2[C@H](Cc2ccccc2)NC(=O)NS(=O)(=O)c2ccccc2C)c1 [Example 24, (S)-N-((1-(1-(3-ethoxyphenyl)-1H-imidazol-2-yl)-2-phenylethyl)carbamoyl)-2-methylbenzenesulfonamide] | 0.1 to 1 µM | 0.6 µM | > 100 µM |
| CCCOc1ccc(-n2ccnc2[C@H](Cc2ccccc2)NC(=O)NS(=O)(=O)c2ccccc2C)cc1Cl [Example 25, (S)-N-((1-(1-(3-chloro-4-propoxyphenyl)-1H-imidazol-2-yl)-2-phenylethyl)carbamoyl)-2-methylbenzenesulfonamide] | < 0.1 µM |  | 50 µM |
| CCOc1ccc(-n2ccnc2[C@H](Cc2ccccc2)NC(=O)NS(=O)(=O)c2ccccc2C)cc1Cl [Example 26, (S)-N-((1-(1-(3-chloro-4-ethoxyphenyl)-1H-imidazol-2-yl)-2-phenylethyl)carbamoyl)-2-methylbenzenesulfonamide] | < 0.1 µM |  | > 100 µM |
| Cc1ccccc1S(=O)(=O)NC(=O)N[C@@H](Cc1ccccc1)c1nccn1-c1ccc2c(c1)OCO2 [Example 27, (S)-N-((1-(1-(benzo[d][1,3]dioxol-5-yl)-1H-imidazol-2-yl)-2-phenylethyl)carbamoyl)-2-methylbenzenesulfonamide] | < 0.1 µM | 0.07 µM | > 100 µM |
| Cc1ccccc1-n1ccnc1[C@H](Cc1ccccc1)NC(=O)NS(=O)(=O)c1ccccc1C [Example 28, (S)-2-methyl-N-((2-phenyl-1-(1-(o-tolyl)-1H-imidazol-2-yl)ethyl)carbamoyl)benzenesulfonamide] | > 1 µM |  | > 100 µM |
| Cc1ccccc1S(=O)(=O)NC(=O)N[C@@H](Cc1ccccc1)c1nccn1-c1ccc(OCc2ccccc2)cc1 [Example 30, (S)-N-((1-(1-(4-(benzyloxy)phenyl)-1H-imidazol-2-yl)-2-phenylethyl)carbamoyl)-2-methylbenzenesulfonamide] | 0.1 to 1 µM | 0.28 µM | > 100 µM |
| Cc1ccccc1S(=O)(=O)NC(=O)N[C@@H](Cc1ccccc1)c1nccn1-c1ccccc1 [Example 31, (S)-2-methyl-N-((2-phenyl-1-(1-phenyl-1H-imidazol-2-yl)ethyl)carbamoyl)benzenesulfonamide] | 0.1 to 1 µM |  | > 100 µM |
| Cc1ccc(-n2ccnc2[C@H](Cc2ccccc2)NC(=O)NS(=O)(=O)c2ccccc2C)cc1Cl [Example 32, (S)-N-((1-(1-(3-chloro-4-methylphenyl)-1H-imidazol-2-yl)-2-phenylethyl)carbamoyl)-2-methylbenzenesulfonamide] | < 0.1 µM |  | > 100 µM |
| Cc1ccccc1S(=O)(=O)NC(=O)N[C@@H](Cc1ccccc1)c1nccn1-c1ccc([N+](=O)[O-])cc1 [Example 33, (S)-2-methyl-N-((1-(1-(4-nitrophenyl)-1H-imidazol-2-yl)-2-phenylethyl)carbamoyl)benzenesulfonamide] | 0.1 to 1 µM | 0.19 µM | > 100 µM |
| CCOC(=O)Nc1ccc(-n2ccnc2[C@H](Cc2ccccc2)NC(=O)NS(=O)(=O)c2ccccc2C)cc1 [Example 34, (S)-ethyl (4-(2-(2-phenyl-1-(3-(o-tolylsulfonyl)ureido)ethyl)-1H-imidazol-1-yl)phenyl)carbamate] | < 0.1 µM |  | > 100 µM |
| CC(=O)Nc1ccc(-n2ccnc2[C@H](Cc2ccccc2)NC(=O)NS(=O)(=O)c2ccccc2C)cc1 [Example 35, (S)-N-(4-(2-(2-phenyl-1-(3-(o-tolylsulfonyl)ureido)ethyl)-1H-imidazol-1-yl)phenyl)acetamide] | 0.1 to 1 µM |  | > 33 µM |
| COC(=O)Nc1ccc(-n2ccnc2[C@H](Cc2ccccc2)NC(=O)NS(=O)(=O)c2ccccc2Cl)cc1 [Example 36, (S)-methyl (4-(2-(1-(3-((2-chlorophenyl)sulfonyl)ureido)-2-phenylethyl)-1H-imidazol-1-yl)phenyl)carbamate] | < 0.1 µM | 0.06 µM | > 100 µM |
| COC(=O)Nc1ccc(-n2ccnc2[C@H](Cc2ccccc2)NC(=O)NS(=O)(=O)c2ccccc2)cc1 [Example 37, (S)-methyl (4-(2-(2-phenyl-1-(3-(phenylsulfonyl)ureido)ethyl)-1H-imidazol-1-yl)phenyl)carbamate] | 0.1 to 1 µM |  | > 33 µM |
| COC(=O)Nc1ccc(-n2ccnc2[C@H](Cc2ccccc2)NC(=O)NS(=O)(=O)c2ccc(C)cc2)cc1 [Example 38, (S)-methyl (4-(2-(2-phenyl-1-(3-tosylureido)ethyl)-1H-imidazol-1-yl)phenyl)carbamate] | 0.1 to 1 µM |  | > 100 µM |
| COC(=O)Nc1ccc(-n2ccnc2[C@@H](Cc2ccccc2)NC(=O)NS(=O)(=O)c2ccccc2C)cc1 [Example 39] | > 1 µM | 1.42 µM | > 11 µM |
| COc1ccc(Cn2ccnc2[C@H](Cc2ccccc2)NC(=O)NS(=O)(=O)c2ccccc2C)cc1 [Example 40, (S)-N-((1-(1-(4-methoxybenzyl)-1H-imidazol-2-yl)-2-phenylethyl)carbamoyl)-2-methylbenzenesulfonamide] | 0.1 to 1 µM |  | > 33 µM |
| COc1ccc(Cn2ccnc2[C@H](Cc2ccccc2)NC(=O)NS(=O)(=O)c2ccccc2Cl)cc1 [Example 41, (S)-2-chloro-N-((1-(1-(4-methoxybenzyl)-1H-imidazol-2-yl)-2-phenylethyl)carbamoyl)benzenesulfonamide] | 0.1 to 1 µM |  | > 33 µM |
| Cc1ccccc1S(=O)(=O)NC(=O)N[C@@H](Cc1ccccc1)c1nccn1-c1ccc(N)cc1 [Example 42, (S)-N-((1-(1-(4-aminophenyl)-1H-imidazol-2-yl)-2-phenylethyl)carbamoyl)-2-methylbenzenesulfonamide] | < 0.1 µM | 0.04 µM | > 100 µM |
| COC(=O)Nc1ccc(-n2ccnc2[C@H](Cc2ccccc2)NC(=O)NS(=O)(=O)c2ccccc2OC)cc1 [Example 44, (S)-methyl (4-(2-(1-(3-((2-methoxyphenyl)sulfonyl)ureido)-2-phenylethyl)-1H-imidazol-1-yl)phenyl)carbamate] | < 0.1 µM |  | > 100 µM |
| COC(=O)Nc1ccc(-n2ccnc2[C@H](Cc2ccccc2)NC(=O)NS(=O)(=O)c2ccccc2OC(F)(F)F)cc1 [Example 45, (S)-methyl (4-(2-(2-phenyl-1-(3-((2-(trifluoromethoxy)phenyl)sulfonyl)ureido)ethyl)-1H-imidazol-1-yl)phenyl)carbamate] | < 0.1 µM | 0.06 µM | > 100 µM |
| COC(=O)Nc1ccc(-n2ccnc2[C@H](Cc2ccccc2)NC(=O)NS(=O)(=O)c2ccc(C)s2)cc1 [Example 46, (S)-methyl (4-(2-(1-(3-((5-methylthiophen-2-yl)sulfonyl)ureido)-2-phenylethyl)-1H-imidazol-1-yl)phenyl)carbamate] | 0.1 to 1 µM |  | > 100 µM |
| COC(=O)Nc1ccc(-n2ccnc2[C@H](Cc2ccccc2)NC(=O)NS(=O)(=O)Cc2ccccc2)cc1 [Example 47, (S)-methyl (4-(2-(1-(3-(benzylsulfonyl)ureido)-2-phenylethyl)-1H-imidazol-1-yl)phenyl)carbamate] | 0.1 to 1 µM |  | > 33 µM |
